For the assay, the system named is HEK293. Description: Inhibition of Wnt/beta-catenin signaling pathway in human HEK293 cells at 20 uM after 24 hrs by dual luciferase reporter gene assay relative to vehicle-treated control. As to conditions: HEK293, 24 h. In general terms: In a reporter assay the amount or activity of a reporter protein is the signal.
On to `COc1cc([C@@H](O)[C@@H](CO)Oc2ccc(CCCO)cc2O)ccc1O`, for which the inhibition – broadly, the change of the read-out against control, counted positive when it falls – at 20 µM was -30.7%.

For the compound `c1cc2c(cc1[C@H]1OC[C@H]3[C@@H]1CO[C@@H]3c1ccc3c(c1)OCO3)OCO2` [SESAMIN], the inhibition at 20 µM came to 39.7%. On to `COc1cc(C[C@H]2COC(=O)[C@@H]2Cc2ccc(O[C@@H]3O[C@H](CO)[C@@H](O)[C@H](O)[C@H]3O)c(OC)c2)ccc1O` [MATAIRESINOSIDE], for which the inhibition at 20 µM was 9.3%.

As for `C=CCc1ccc(O)c(-c2ccc(O)c(CC=C)c2)c1` [HONOKIOL], the inhibition at 20 µM was 59.3%. On to `COc1ccc([C@@H]2OC[C@H]3[C@@H]2CO[C@@H]3c2ccc3c(c2)OCO3)cc1OC` [FARGESIN], for which the inhibition at 20 µM was 29.8%. Under `COC(=O)[C@@H](Cc1ccc(O)c(O)c1)OC(=O)/C=C/c1ccc(O)c2c1[C@@H](C(=O)O[C@H](Cc1ccc(O)c(O)c1)C(=O)OC)[C@H](c1ccc(O)c(O)c1)O2` stands 10.5%; under `C/C=C(\C)C(=O)O[C@H]1c2cc(OC)c(OC)c(OC)c2-c2c(cc3c(c2O)OCO3)C[C@H](C)[C@]1(C)O` [SCHISANTHERIN C], -9.3%.

As to `COc1cc(C2Oc3cc([C@H]4Oc5cc(O)cc(O)c5C(=O)[C@@H]4O)ccc3OC2CO)ccc1O` (stereo partly drawn) [SILIBININ], the inhibition at 20 µM stood at 8.3%. Turning to `COc1cc([C@@H]2Oc3c(OC)cc(CCCO[C@@H]4O[C@H](CO)[C@@H](O)[C@H](O)[C@H]4O)cc3[C@H]2CO)ccc1O`, the inhibition at 20 µM was -14.8%. To `COc1cc2c(c(OC)c1OC)-c1c(cc(OC)c(OC)c1OC)C[C@](C)(O)[C@@H](C)C2` [SCHIZANDRIN] belongs 6.2%; to `COc1cc([C@@H]2OC[C@@H]3[C@H]2CO[C@@H]3c2ccc(OC)c(OC)c2)ccc1O`, 24.7%; to `COc1ccc([C@@H]2OC[C@@H]3[C@H]2CO[C@H]3c2ccc(OC)c(OC)c2)cc1OC` [EUDESMINE], 26.3%. To `C=CCc1ccc(O)c(-c2cc(CC=C)ccc2O)c1` [MAGNOLOL] belongs 72.4%; to `O[C@]12CO[C@H](c3ccc4c(c3)OCO4)[C@H]1CO[C@@H]2c1ccc2c(c1)OCO2`, -3.5%; to `COc1cc2c(c(OC)c1OC)-c1c(cc3c(c1OC)OCO3)C[C@H](C)[C@H](C)C2` [WUWEIZISU B], -17.8%. Regarding `Oc1ccc2c(c1)OCO2`, the inhibition at 20 µM turned out to be 10.1%.

Regarding `CC(=O)/C=C/C=C/c1ccc2c(c1)O[C@@H](CO)[C@H](c1ccc(O)c(O)c1)O2`, the inhibition at 20 µM came out at 0.6%. Under `O=C(/C=C/c1ccc(O)c(O)c1)O[C@H](Cc1ccc(O)c(O)c1)C(=O)O` [ROSMARINIC ACID] stands 27%. To `C/C=C/c1cc(OC)c2c(c1)C(C)C(c1ccc(O)c(OC)c1)O2` (stereo not drawn) [DEHRODIISOEUGENOL] belongs 28%. On to `COc1cc([C@H]2c3c(cc(O)c(O)c3OC)C[C@@H](CO)[C@@H]2CO)ccc1O`, for which the inhibition at 20 µM turned out to be 2.6%. Under `COc1cc2c(c(OC)c1OC)-c1c(cc3c(c1OC)OCO3)C[C@H](C)[C@](C)(O)C2` [GOMISIN A] stands 38.2%; under `COc1cc(CC(CO)c2cc(/C=C/CO)cc(OC)c2O[C@@H]2O[C@H](CO)[C@@H](O)[C@H](O)[C@H]2O)ccc1O` (stereo partly drawn), 11.4%; under `COc1cc([C@H]2OC[C@H]3[C@@H]2CO[C@@H]3c2ccc3c(c2)OCO3)ccc1O[C@@H]1O[C@H](CO)[C@@H](O)[C@H](O)[C@H]1O` [SIMPLEXOSIDE], -13.6%. As for `COc1cc([C@H]2OC[C@@H]3[C@@H]2CO[C@H]3c2cc(OC)c(O[C@@H]3O[C@H](CO)[C@@H](O)[C@H](O)[C@H]3O)c(OC)c2)cc(OC)c1O[C@@H]1O[C@H](CO)[C@@H](O)[C@H](O)[C@H]1O`, the inhibition at 20 µM was determined as 9.8%.

`O=C/C=C/c1ccc2c(c1)OC(c1ccc3c(c1)OC(CO)C(c1ccc(O)c(O)c1)O3)C(CO)O2` (stereo not drawn): the inhibition at 20 µM worked out at 69.9%.

On to `COc1cc([C@@H]2Oc3c(OC)cc(CCCO)cc3[C@H]2CO)ccc1O` [DIHYDRODEHYDRODICONIFERYL ALCOHOL], for which the inhibition at 20 µM turned out to be 31.4%.

As to `O=C/C=C/c1ccc2c(c1)O[C@@H](CO)[C@H](c1ccc(O)c(O)c1)O2` [AMERICANIN A], the inhibition at 20 µM was determined as 55%.

Turning to `c1cc2c(cc1O[C@H]1OC[C@H]3[C@@H]1CO[C@@H]3c1ccc3c(c1)OCO3)OCO2` [SESAMOLIN], the inhibition at 20 µM was determined as 11.6%.

The values are drawn from ChEMBL document CHEMBL2440042, “Anti-proliferative activity of hydnocarpin, a natural lignan, is associated with the suppression of Wnt/β-catenin signaling pathway in colon cancer cells” (Bioorg Med Chem Lett, 2013).
